The values that follow come from ChEMBL document CHEMBL1811841 (Bioorg Med Chem, 2011).

T1 sequence (P48039 whole entry): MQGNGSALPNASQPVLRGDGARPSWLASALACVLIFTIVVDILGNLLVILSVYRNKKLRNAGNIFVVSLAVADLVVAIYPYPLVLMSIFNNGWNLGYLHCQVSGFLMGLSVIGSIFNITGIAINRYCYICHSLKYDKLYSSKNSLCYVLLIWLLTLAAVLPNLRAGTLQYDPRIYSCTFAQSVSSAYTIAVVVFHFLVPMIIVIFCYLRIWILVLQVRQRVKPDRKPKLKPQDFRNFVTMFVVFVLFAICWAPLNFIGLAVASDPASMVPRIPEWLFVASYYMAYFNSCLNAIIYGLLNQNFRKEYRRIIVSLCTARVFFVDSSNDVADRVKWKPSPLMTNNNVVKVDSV

One experiment has as its target T1, Melatonin receptor type 1A (Homo sapiens, UniProt P48039). In words: Displacement of 2-[125I]iodomelatonin from human cloned MT1 receptor expressed in mouse NIH-3T3 cell membrane. The experiment is classed as cell membranes, NIH3T3.
Details: not given
Take `CC(=O)NCCN(C)c1cccc(OCCCCCCOc2ccccc2)c1`: the affinity, expressed as Ki, was 14.5 nM.
With `CC(=O)NCCN(C)c1cccc(OCCCCCOc2cccc(N(C)CCNC(C)=O)c2)c1`, the Ki (commonly a measure of affinity in units of concentration, obtained from inhibition or displacement) was 57.5 nM.
`COc1cccc(N(CCNC(C)=O)C(=O)CCCCC(=O)N(CCNC(C)=O)c2cccc(OC)c2)c1` showed a Ki of 288 nM.
`CC(=O)NCCN(C)c1cccc(OCCCOc2cccc(N(C)CCNC(C)=O)c2)c1` showed a Ki of 20.4 nM.
The same measure, in the same setting: next, `CC(=O)NCCN(C)c1cccc(OCCCCCCOc2cccc(N(C)CCNC(C)=O)c2)c1`: 3.39 nM; `CC(=O)NCCN(C)c1cccc(OCCCCCCCCOc2cccc(N(C)CCNC(C)=O)c2)c1`: 20 nM; `COc1cccc(N(CCCCCCN(CCNC(C)=O)c2cccc(OC)c2)CCNC(C)=O)c1`: 741 nM.
On the same count and under the same terms, to `CC(=O)NCCN(C)c1cccc(OCCCCCCCCCCOc2cccc(N(C)CCNC(C)=O)c2)c1` belongs 3.98 nM; to `CC(=O)NCCN(C)c1cccc(OCCCCOc2cccc(N(C)CCNC(C)=O)c2)c1`, 42.7 nM; to `COc1cccc(N(CCCCCCCCCCN(CCNC(C)=O)c2cccc(OC)c2)CCNC(C)=O)c1`, 380 nM.

For a further experiment, the target named is T2, Melatonin receptor type 1B (Homo sapiens, UniProt P49286).
T2 sequence (P49286 whole entry): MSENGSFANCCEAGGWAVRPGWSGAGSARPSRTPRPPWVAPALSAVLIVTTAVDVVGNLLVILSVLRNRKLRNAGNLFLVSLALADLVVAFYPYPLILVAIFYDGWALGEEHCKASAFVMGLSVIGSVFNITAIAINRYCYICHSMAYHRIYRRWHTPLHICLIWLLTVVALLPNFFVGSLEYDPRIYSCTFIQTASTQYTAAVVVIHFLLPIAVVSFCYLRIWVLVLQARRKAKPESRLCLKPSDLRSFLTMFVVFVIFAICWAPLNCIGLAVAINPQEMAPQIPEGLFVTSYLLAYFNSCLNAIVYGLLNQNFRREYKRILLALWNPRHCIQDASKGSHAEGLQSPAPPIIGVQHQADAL
The experiment can be described thus: Displacement of 2-[125I]iodomelatonin from human cloned MT2 receptor expressed in mouse NIH-3T3 cell membrane. The experiment is classed as cell membranes, NIH3T3.
Details: not given
With `CC(=O)NCCN(C)c1cccc(OCCCCCCOc2ccccc2)c1`, the affinity, expressed as Ki, was 158 nM.
Compound `CC(=O)NCCN(C)c1cccc(OCCCCCOc2cccc(N(C)CCNC(C)=O)c2)c1` gave a Ki of 813 nM.
Still for that read-out and setting: next, `COc1cccc(N(CCNC(C)=O)C(=O)CCCCC(=O)N(CCNC(C)=O)c2cccc(OC)c2)c1`: 245 nM; `CC(=O)NCCN(C)c1cccc(OCCCOc2cccc(N(C)CCNC(C)=O)c2)c1`: 2090 nM; `CC(=O)NCCN(C)c1cccc(OCCCCCCOc2cccc(N(C)CCNC(C)=O)c2)c1`: 182 nM.
In the case of `CC(=O)NCCN(C)c1cccc(OCCCCCCCCOc2cccc(N(C)CCNC(C)=O)c2)c1`, the Ki is 93.3 nM.
As for `COc1cccc(N(CCCCCCN(CCNC(C)=O)c2cccc(OC)c2)CCNC(C)=O)c1`, the Ki is 36.3 nM.
Still for that read-out and setting: next, `CC(=O)NCCN(C)c1cccc(OCCCCCCCCCCOc2cccc(N(C)CCNC(C)=O)c2)c1`: 40.7 nM; `CC(=O)NCCN(C)c1cccc(OCCCCOc2cccc(N(C)CCNC(C)=O)c2)c1`: 1000 nM; `COc1cccc(N(CCCCCCCCCCN(CCNC(C)=O)c2cccc(OC)c2)CCNC(C)=O)c1`: 309 nM.

For another experiment, the species on record is Homo sapiens. The experiment can be described thus: Selectivity index, ratio of Ki for human cloned MT2 receptor to Ki for human cloned MT1 receptor.
Details: not given
For the compound `CC(=O)NCCN(C)c1cccc(OCCCCCCOc2ccccc2)c1`, the Ratio Ki came out at 11.
On the same count and under the same terms, next, `CC(=O)NCCN(C)c1cccc(OCCCCCOc2cccc(N(C)CCNC(C)=O)c2)c1`: 14; `COc1cccc(N(CCNC(C)=O)C(=O)CCCCC(=O)N(CCNC(C)=O)c2cccc(OC)c2)c1`: 0.85; `CC(=O)NCCN(C)c1cccc(OCCCOc2cccc(N(C)CCNC(C)=O)c2)c1`: 102.
On the same count and under the same terms, to `CC(=O)NCCN(C)c1cccc(OCCCCCCOc2cccc(N(C)CCNC(C)=O)c2)c1` belongs 54; to `CC(=O)NCCN(C)c1cccc(OCCCCCCCCOc2cccc(N(C)CCNC(C)=O)c2)c1`, 4.7; to `COc1cccc(N(CCCCCCN(CCNC(C)=O)c2cccc(OC)c2)CCNC(C)=O)c1`, 0.05.
`CC(=O)NCCN(C)c1cccc(OCCCCCCCCCCOc2cccc(N(C)CCNC(C)=O)c2)c1`: the Ratio Ki amounted to 10.
Same read-out and setting: next, `CC(=O)NCCN(C)c1cccc(OCCCCOc2cccc(N(C)CCNC(C)=O)c2)c1`: 23.
The same measure, in the same setting: next, `COc1cccc(N(CCCCCCCCCCN(CCNC(C)=O)c2cccc(OC)c2)CCNC(C)=O)c1`: 0.8.

The target in another experiment is T1, Melatonin receptor type 1A. In words: Intrinsic activity at human cloned MT1 receptor expressed in mouse NIH-3T3 cells assessed as stimulation of [35S]GTPgammaS binding relative to melatonin. It counts as functional, cell-based. The note with it: NIH3T3.
`CC(=O)NCCN(C)c1cccc(OCCCCCCOc2ccccc2)c1`: the Intrinsic activity turned out to be 0.49.
The same measure, in the same setting: to `CC(=O)NCCN(C)c1cccc(OCCCCCOc2cccc(N(C)CCNC(C)=O)c2)c1` belongs 0.46.
For the compound `COc1cccc(N(CCNC(C)=O)C(=O)CCCCC(=O)N(CCNC(C)=O)c2cccc(OC)c2)c1`, the Intrinsic activity came to 0.94.
For `CC(=O)NCCN(C)c1cccc(OCCCOc2cccc(N(C)CCNC(C)=O)c2)c1`, the Intrinsic activity was determined as 0.26.
Same read-out and setting: next, `CC(=O)NCCN(C)c1cccc(OCCCCCCOc2cccc(N(C)CCNC(C)=O)c2)c1`: 0.44.
On the same count and under the same terms, to `CC(=O)NCCN(C)c1cccc(OCCCCCCCCOc2cccc(N(C)CCNC(C)=O)c2)c1` belongs 0.47; to `COc1cccc(N(CCCCCCN(CCNC(C)=O)c2cccc(OC)c2)CCNC(C)=O)c1`, -0.04; to `CC(=O)NCCN(C)c1cccc(OCCCCCCCCCCOc2cccc(N(C)CCNC(C)=O)c2)c1`, 0.42.
The same measure, in the same setting: to `CC(=O)NCCN(C)c1cccc(OCCCCOc2cccc(N(C)CCNC(C)=O)c2)c1` belongs 0.21; to `COc1cccc(N(CCCCCCCCCCN(CCNC(C)=O)c2cccc(OC)c2)CCNC(C)=O)c1`, 0.12.

The target in a further experiment is T3, Melatonin receptor type 1B (Homo sapiens) (UniProt P49286).
T3 sequence (whole entry): T2 sequence (P49286 whole entry)
In words: Intrinsic activity at human cloned MT2 receptor expressed in mouse NIH-3T3 cells assessed as stimulation of [35S]GTPgammaS binding relative to melatonin. The note with it: NIH3T3. It counts as functional, cell-based. Background: GTPγS is a poorly hydrolysed GTP analogue; its binding reports G protein activation.
For the compound `CC(=O)NCCN(C)c1cccc(OCCCCCCOc2ccccc2)c1`, the Intrinsic activity came to 0.54.
Still for that read-out and setting: next, `CC(=O)NCCN(C)c1cccc(OCCCCCOc2cccc(N(C)CCNC(C)=O)c2)c1`: 0.64; `COc1cccc(N(CCNC(C)=O)C(=O)CCCCC(=O)N(CCNC(C)=O)c2cccc(OC)c2)c1`: 0.91.
Still for that read-out and setting: next, `CC(=O)NCCN(C)c1cccc(OCCCOc2cccc(N(C)CCNC(C)=O)c2)c1`: 0.33; `CC(=O)NCCN(C)c1cccc(OCCCCCCOc2cccc(N(C)CCNC(C)=O)c2)c1`: 0.33; `CC(=O)NCCN(C)c1cccc(OCCCCCCCCOc2cccc(N(C)CCNC(C)=O)c2)c1`: 0.38.
On the same count and under the same terms, to `COc1cccc(N(CCCCCCN(CCNC(C)=O)c2cccc(OC)c2)CCNC(C)=O)c1` belongs -0.09.
In the case of `CC(=O)NCCN(C)c1cccc(OCCCCCCCCCCOc2cccc(N(C)CCNC(C)=O)c2)c1`, the Intrinsic activity turned out to be 0.57.
Still for that read-out and setting: to `CC(=O)NCCN(C)c1cccc(OCCCCOc2cccc(N(C)CCNC(C)=O)c2)c1` belongs 0.18; to `COc1cccc(N(CCCCCCCCCCN(CCNC(C)=O)c2cccc(OC)c2)CCNC(C)=O)c1`, 0.37.
